Tests used:
Type in all cases: physicochemical
[1] = Particle size analysis by laser diffraction of neat API; conditions: for Particle Size Mean / Particle Size Median / Particle Size Mode: dispersed in cyclohexane
Text: For particle size analysis, by laser diffraction (LD), a small sample of the dry powder was dispersed into cyclohexane with sonication and then diluted to an appropriate signal level. The optical microscope was a Zeiss Model Std 25 fitted with a 40× objective. […] The Raman spectrometer was a Horiba XploRA Raman Microscope.

[2] = Optical microscopic examination of neat API dry powder; conditions: for estimates of size range by optical microscopy: 400× magnification
Text: Neat API: For optical microscopic/image analysis examination the material was used as received. A small aliquot was placed on a clean microscope slide and a clean glass coverslip placed on top.
(§1) The optical microscope was a Zeiss Model Std 25 fitted with a 40× objective. The particle size analyzers were the Horiba LA 950 (LD) and a Malvern NanoSizer 90Z (DLS). The Raman spectrometer was a Horiba XploRA Raman Microscope.

[3] = Particle size of aspirin formulation vs dry aspirin (Example 4, DLS Z-average)
Protocol: The particle size of aspirin (dry powder) and the aspirin diluted in the dermal and/or transdermal liquid formulation set forth in Example 1 were compared. Two studies were carried out to determine the particle size (and distribution) of samples of: (i) the formulation of Example 1, lacking only the aspirin (delivery system control), (ii) the formulation of Example 1, including the aspirin (experimental) and (iii) pure (dry) aspirin (control).

[4] = Particle size analysis by Dynamic Light Scattering (Example 8); conditions: DLS intensity data
Text: as §1

Row | Compound | size of the majority of particles [1] | Particle Size Mean [1] [μm] | Particle Size Median [1] [μm] | Particle Size Mode [1] [μm] | particle size prior to formulation [2] | estimates of size range by optical microscopy [2] | size relative to aspirin in the formulation of Example 1 ([3]; dry aspirin vs formulated aspirin) | average particle size ([3]; dry aspirin, prior to formulation) [microns] | presence of particles as large as [4] [μm]
1 | CC(C(=O)O)c1cccc(C(=O)c2ccccc2)c1 (racemic) [Ketoprofen, (RS)2-(3-benzoylphenyl)-propionic acid] | about 30 μm | 34 | 27 | 28 | – | – | – | – | –
2 | CC(=O)Nc1ccc(O)cc1 [Acetaminophen, N-acetyl-para-aminophenol] | – | 58 | 44 | 42 | 1-100 microns | from around one or two microns (μm) to over 100 μm | – | – | –
3 | CC(C)Cc1ccc(C(C)C(=O)O)cc1 (stereo not drawn) [Ibuprofen, iso-butyl-propanoic-phenolic acid] | – | 78 | 70 | 72 | – | from around 10 μm to over 100 μm | – | – | –
4 | COc1ccc2cc(C(C)C(=O)O)ccc2c1 (stereo not drawn) [Naproxen, 2-(6-methoxynaphthalen-2-yl)propanoic acid] | around 20 μm | 23 | 23 | 19 | – | singlet particles of only a few microns in size and aggregates as large as 100 μm | – | – | –
5 | CC(=O)Oc1ccccc1C(=O)O [pure (dry) Aspirin, acetylsalicylic acid] | – | – | – | – | – | – | more than 10,000 times | 670 | –
6 | Neat Insulin: insulin supplied as an aqueous solution/suspension | – | – | – | – | – | – | – | – | ≤ 5

From patent US12285487B2, “Liquid topical pharmaceutical nano-emulsion formulations” (JRX BIOTECHNOLOGY, INC., priority 2012, dated 2025)
